Data as given in the supplement of paper PMC10307832.

How the values were obtained:
Experiment in all cases: relative viability (nuclei count vs DMSO), 5 days (fraction); higher = more cells survive
[1] = compound: C[C@@H](N)c1ccc(C(=O)Nc2ccnc3[nH]ccc23)cc1 + N=C(N)NC(=N)NCCc1ccccc1 [Phenformin] (partner 250 µM)
Outline: (§1)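 After 5 days of treatment, lung cancer cells in 1536-well plates were fixed and stained in a single step (final 0.05% Triton X-100, 1% formaldehyde, 1 ug/ml Hoechst) and their nuclei counted on 4× images. Treatment had been applied by pin tool the day after seeding as one drug alone or as a fixed anchor-drug dose with five library-drug doses (not always all listed) in √10 steps. Relative viability is the nuclei count of treated wells divided by that of vehicle wells, and values are medians of duplicate plates.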

[2] = compound: C[C@@H](N)c1ccc(C(=O)Nc2ccnc3[nH]ccc23)cc1 + C[C@@H](Oc1cc(-c2cnn(C3CCNCC3)c2)cnc1N)c1c(Cl)ccc(F)c1Cl [Crizotinib] (partner 1 µM)
Outline: as §1

[3] = compound: O[C@H]1CC[C@H](Nc2ncc3nc(Nc4c(F)cc(F)cc4F)n([C@H]4CCOC4)c3n2)CC1 [Tanzisertib] + Cc1cc(Nc2cc(N3CCN(C)CC3)nc(Sc3ccc(NC(=O)C4CC4)cc3)n2)n[nH]1 [Tozasertib] (partner 0.1 µM)
Outline: as §1

[4] = compound: C1CNCCC1C2=CC(=NN2)C3=CC=NC=C3 + N=C(N)NC(=N)NCCc1ccccc1 [Phenformin] (partner 250 µM)
Outline: as §1

Cell Line	relative viability ([1]; first compound 0.04 µM)	relative viability ([1]; first compound 0.1265 µM)	relative viability ([1]; first compound 0.4 µM)	relative viability ([1]; first compound 1.265 µM)	relative viability ([1]; first compound 4 µM)	relative viability ([2]; first compound 0.04 µM)	relative viability ([2]; first compound 0.1265 µM)	relative viability ([2]; first compound 0.4 µM)	relative viability ([2]; first compound 1.265 µM)	relative viability ([2]; first compound 4 µM)	relative viability ([3]; first compound 0.08 µM)	relative viability ([3]; first compound 0.253 µM)	relative viability ([3]; first compound 0.8 µM)	relative viability ([3]; first compound 2.53 µM)	relative viability ([3]; first compound 8 µM)	relative viability ([4]; first compound 0.08 µM)	relative viability ([4]; first compound 0.8 µM)	relative viability ([4]; first compound 2.53 µM)	relative viability ([4]; first compound 8 µM)
NCI-H2228	0.354	0.393	0.315	0.33	0.357	0.373	0.463	0.653	0.556	0.497	0.333	0.385	0.241	0.254	0.238	0.328	0.368	0.286	0.359
RERF-LC-KJ	0.417	0.435	0.446	0.434	0.425	0.808	0.893	0.788	0.858	0.684	0.386	0.554	0.61	0.383	0.442	0.391	0.429	0.438	0.406
NCI-H661	0.222	0.274	0.247	0.224	0.244	0.906	0.929	1.18	1.02	0.89	0.361	0.345	0.331	0.35	0.359	0.277	0.263	0.273	0.273
HCC-366	0.583	0.66	0.617		0.57	0.71	0.536	0.683		0.483	0.105	0.0977	0.114	0.0525	0.0508	0.653	0.656	0.618	0.659
SK-LU-1	0.433	0.611	0.488	0.365	0.405	0.926	0.964	0.779	0.757	0.5	0.33	0.316	0.263	0.309	0.319	0.498	0.41	0.529	0.57
HCC-44	0.138	0.172	0.285	0.1	0.218	0.82	0.776	0.86	0.995	0.652	1.05	0.913	1.04	0.976	1.02	0.31	0.194	0.276	0.322
A-427	0.287	0.402	0.332		0.284	0.875	0.882	0.959		0.894	0.244	0.196	0.214	0.198	0.2	0.375	0.38	0.323	0.299
SW 1573	0.363	0.487	0.368	0.363	0.284	0.792	0.816	0.777	0.65	0.765	0.174	0.185	0.151	0.204	0.139		0.365	0.376	0.471
NCI-H322M	0.874	0.886	0.871		0.72	0.881	0.944	1.09		1.08	0.473	0.468	0.498	0.487	0.499	0.796	0.77	0.856	0.864
ABC-1	0.254	0.262	0.227		0.243	1.47	1.19	1.4	1.6	0.857	0.165	0.197	0.175	0.137	0.134	0.244	0.195	0.259	0.257
LK-2	0.325		0.744		0.636	0.227	0.251	0.224		0.218	0.164	0.18	0.17	0.163	0.169	0.354	0.377	0.547	0.494
NCI-H2023	0.451	0.482	0.512	0.457	0.411	0.738	0.596	0.733	0.741	0.544	0.479	0.431	0.409	0.321	0.2	0.357	0.411	0.498	0.423
NCI-H596	0.781	0.668	0.804		0.713	1.04	0.899	0.934	0.809	0.93	1.02	0.809	0.971	1.06	0.715	0.657	0.841	0.927	0.86
SK-MES-1	0.63	0.712	0.658	0.583	0.571	1.01	0.973	0.94	0.798	0.757	0.971	0.889	0.991	0.951	0.992	0.635	0.68	0.634	0.603
NCI-H2405	0.176	0.449	0.369	0.264	0.218	0.689	0.904	0.868	0.68	0.387	0.784	0.744	0.844	0.823	0.73	0.44	0.285	0.385	0.383
LCLC-103H	0.284	0.351	0.329	0.268	0.308	1.19	1.02	1.13	1.01	0.903	0.597	0.442	0.499	0.475	0.457	0.318	0.351	0.361	0.342
NCI-H460	0.509	0.522	0.558	0.535	0.495	1.1	0.943	0.966	0.516	0.603	0.548	0.376	0.457	0.382	0.099	0.335	0.72	0.564	0.51
NCI-H1755	0.504	0.687	0.657	0.525	0.426	0.808	0.822	0.813	0.795	0.608	0.58	0.618	0.561	0.582	0.533	0.631		0.688	0.553
